Here are results for 26 molecules from patent US20100016274A1, “BETA-LACTAM CANNABINOID RECEPTOR MODULATORS” (priority 2006, published 2010).

Structures are written as SMILES. pIC50, pKi: −log10 of the molar value. Several values for one entry are separate records, joined by “and”; a condition that tells them apart may be missing. Equal entries are not always repeated. Where two headings read alike, the source gives them in different places. A value given as a limit tells only on which side of the number the result lay.

Assay [1] concerns the target T1, cannabinoid receptor-1 (CB1), CB1R-containing cell membrane (Homo sapiens, UniProt P21554).
T1 construct: purchased Applied Cell Sciences Inc, Rockville, Md
The assay can be described thus: biochemical. It is filed as binding. The following applies: for pKi: displacement of 3H-CP55940 on CB1 receptors, from serial dilutions, non-linear regression. How it is done:
Method A using cell membranes. A compound is dissolved in DMSO and diluted to 1 M as a stock solution. […] A CB1R-containing cell membrane (Applied Cell Sciences Inc, Rockville, Md.) is diluted with binding buffer to a protein concentration of 28 μg/ml.
(§1) The mixture is incubated for 90 min at room temperature, then filtered through Whatman glass fiber C disc filter in a vacuum manifold. The filter is washed three times each with 2.5 ml cold wash buffer (binding buffer with only 2.5 mg/ml BSA). The vacuum-dried filter is transferred to a scintillation vial, treated with 3 ml Eco-Scint, and the radioactivity is read on a Beckman LS6500 scintillation counter from which an IC50 value is calculated. The corresponding Ki values are obtained from serial dilutions according to this method, and calculated through the use of a non-linear regression program (Graphpad Inc, San Diego, Calif.).
A general note: Displacement assays read how much labelled ligand stays bound in the presence of the test substance.

The target in assay [2] is T2, cannabinoid receptor-2 (CB2), CB2R-containing cell membrane; hCB2 receptors (Homo sapiens, UniProt P34972).
T2 construct: purchased Applied Cell Sciences Inc, Rockville, Md
The assay can be described thus: Cannabinoid Receptor-2 (CB2) Binding Assay, Method A using cell membranes (displacement of 3H-CP55940). The following applies: for IC50: displacement of 3H-CP55940 (1 nM), CB2R-containing cell membrane; for Ki: displacement of 3H-CP55940, CB2R-containing cell membrane, from serial dilutions. How it is done: Method A using cell membranes. A compound is dissolved in DMSO and diluted to 1 M as a stock solution. […] A CB2R-containing cell membrane (Applied Cell Sciences Inc, Rockville, Md.) is diluted with binding buffer to a protein concentration of 28 μg/ml.
as §1

The target of assay [3] is T3, hCB1 (membranes from hCB1 stably transfected CHO cells) (Homo sapiens, UniProt P21554).
T3 construct: purchased Perkin Elmer/NEN; host or cells: CHO cells, stably transfected
Put plainly: Cannabinoid Receptor-1 (CB1) Functional Activity Assay, Method A (35S-GTPγS, WIN 55212-2). The following applies: for antagonism of WIN 55212-2 at CB1 receptors: FIGS. 3b-3d; for antagonism at CB1 receptors: FIGS. 5a, 6a, 7a, no WIN 55212-2 named in the legend; for antagonism of 3 μM WIN 55212-2 at CB1 receptors: FIGS. 5b, 6b, 7b. It is filed as biochemical. The procedure:
Membranes are diluted in ice-cold assay buffer (10 mM HEPES, 100 mM NaCl, 10 mM MgCl2, 2 μM GDP, 0.2% FAF-BSA, 10 μg/mL saponin) to 38 μg membranes/mL. Dilute ^35S-GTPγ5 to 1 nM in assay buffer. […] These solutions are incubated for 30 minutes at 30° C. The filters are washed 6 times with 10 mM sodium phosphate buffer (pH 7.4) at ambient temperature. The filters are counted using a liquid scintillation counter on the ^35S channel. Each compound/concentration is run in triplicate. A positive antagonism control may be run for AM251 at the same concentrations as test compounds under the same conditions.

Assay [4] has as its target T2, cannabinoid receptor-2 (CB2), CB2R-containing cell membrane; hCB2 receptors. The assay can be described thus: Cannabinoid Receptor-2 (CB2) Binding Assay, Method A using cell membranes (displacement of 3H-CP55940).
[5] abbreviates: IC50, displacement of 3H-CP55940 (1 nM) on CB1 receptors.
[6] abbreviates: displacement of 3H-CP55940 (1 nM) on CB1 receptors, read-out: IC50.
The mark [7] stands for this setting: FIG. 8, against pre-bound CP55940 on CHO cells expressing hCB2 receptors.

T2 sequence (P34972 whole entry): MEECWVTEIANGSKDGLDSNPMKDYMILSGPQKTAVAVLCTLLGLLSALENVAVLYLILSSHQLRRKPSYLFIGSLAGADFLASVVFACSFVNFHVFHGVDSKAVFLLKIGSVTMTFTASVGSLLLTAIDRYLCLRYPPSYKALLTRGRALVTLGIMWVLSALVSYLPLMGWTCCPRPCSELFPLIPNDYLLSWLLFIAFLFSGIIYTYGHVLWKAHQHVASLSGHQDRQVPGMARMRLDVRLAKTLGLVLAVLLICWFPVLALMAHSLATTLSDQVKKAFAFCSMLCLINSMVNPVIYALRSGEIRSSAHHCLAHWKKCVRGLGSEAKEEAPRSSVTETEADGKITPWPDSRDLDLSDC
T1 sequence (P21554 whole entry, species assumed): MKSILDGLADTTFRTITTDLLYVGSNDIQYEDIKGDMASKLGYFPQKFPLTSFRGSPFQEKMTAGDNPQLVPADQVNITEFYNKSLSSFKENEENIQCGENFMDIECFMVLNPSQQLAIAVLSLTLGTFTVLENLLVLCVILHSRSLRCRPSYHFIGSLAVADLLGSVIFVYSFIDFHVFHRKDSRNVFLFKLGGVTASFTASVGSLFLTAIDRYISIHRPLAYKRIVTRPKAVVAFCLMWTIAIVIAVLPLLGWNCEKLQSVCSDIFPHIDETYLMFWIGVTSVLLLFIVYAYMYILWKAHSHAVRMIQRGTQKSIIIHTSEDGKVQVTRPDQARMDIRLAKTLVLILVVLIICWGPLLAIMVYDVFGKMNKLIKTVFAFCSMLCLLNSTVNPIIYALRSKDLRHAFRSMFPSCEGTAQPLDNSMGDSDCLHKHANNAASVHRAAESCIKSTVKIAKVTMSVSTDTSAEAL
T3 sequence (P21554 whole entry): as the sequence (P21554 whole entry, species assumed) above

What is called pIC50 is the IC50 on a negative log10 scale, so that one unit is a factor of ten. The term IC50 denotes the concentration that gives 50% inhibition. A lower IC50 goes with higher potency. As to `O=C(CN1C(=O)C(c2cccs2)C1C=Cc1ccccc1)OCc1ccccc1` (stereo not drawn) [Example 70B, Benzyl 2-[3(S*)-2-Thienyl)-4(R*)-(2-styryl)azetidin-2-on-1-yl]acetate], the pIC50 in assay [1] (setting [5]) was above 5.00. This molecule also gave an IC50 in assay [2] of around 1 µM.
With `Cc1ccc(C2(NC(=O)C(CCC(=O)N3CCN(C4CCCCC4)CC3)N3C(=O)C(N4C(=O)OCC4c4ccccc4)C3C=Cc3ccccc3)CCCC2)cc1` (centres unmarked) [Example 42L], the IC50 in assay [2] was around 10 µM.
Still for that read-out and setting: then `Cc1ccc(C2(NC(=O)C(CCC(=O)N3CCN(C4CCCCC4)CC3)N3C(=O)C(N4C(=O)OCC4c4ccccc4)C3C=Cc3ccccc3)CC2)cc1` (centres unmarked) [Example 42K], with around 10 µM.
In general, pKi refers to the Ki on a negative log10 scale, so that one unit is a factor of ten. Lower therefore signals a high Ki. Consider `O=C(CC[C@@H](C(=O)N1CCN(C2CCCCC2)CC1)N1C(=O)[C@@H](N2C(=O)OC[C@@H]2c2ccccc2)[C@H]1/C=C/c1ccccc1)NCc1cc(F)cc(C(F)(F)F)c1` [Example 37S], for which the pIC50 in assay [1] (setting [6]) is 5.64. This molecule gave a pKi in assay [1] of 5.94. In addition, in assay [3], the “antagonism of WIN 55212-2 at CB1 receptors” value is “antagonism”, the “antagonism at CB1 receptors” value is reported as “antagonism” and the “antagonism of 3 μM WIN 55212-2 at CB1 receptors” value was “antagonism”.
For the molecule `O=C(NCc1cccc(C(F)(F)F)c1)C(CCC(=O)N1CCN(CCc2ccccc2)CC1)N1C(=O)C(N2C(=O)OCC2c2ccccc2)C1C=Cc1ccccc1` (centres unmarked) [Example 44B], the IC50 in assay [2] is below 1 µM.
Still for that read-out and setting: for `CC(C)(C)OC(=O)CC(C(=O)NCc1cccc(C(F)(F)F)c1)N1C(=O)C(N2C(=O)OCC2c2ccccc2)C1C=Cc1ccccc1` [Example 19F, 2(R)-(tert-Butoxycarbonylmethyl)-2-[3(S)-(4(S)-phenyloxazolidin-2-on-3-yl)-4(R)-(2-styryl)azetidin-2-on-1-yl]acetic acid N-(3-trifluoromethylbenzyl)amide] the value was below 1 µM.
Same read-out and setting: for `CC(C)(C)OC(=O)CCC(C(=O)NCc1cccc(C(F)(F)F)c1)N1C(=O)C(N2C(=O)OCC2c2ccccc2)C1C=Cc1ccccc1` [Example 19H, 2(R)-(tert-Butoxycarbonylethyl)-2-[3 (S)-(4(S)-phenyloxazolidin-2-on-3-yl)-4(R)-(2-styryl)azetidin-2-on-1-yl]acetic acid N-(3-trifluoromethylbenzyl)amide] the value was below 1 µM; for `O=C(NC1(c2ccc(Cl)cc2)CC1)C(CCC(=O)N1CCN(C2CCCCC2)CC1)N1C(=O)C(N2C(=O)OCC2c2ccccc2)C1C=Cc1ccccc1` (centres unmarked) [Example 42I], around 10 µM.
Consider `O=C(CC[C@@H](C(=O)N1CCN(C2CCCCC2)CC1)N1C(=O)[C@@H](N2C(=O)OC[C@@H]2c2ccccc2)[C@H]1/C=C/c1ccccc1)NCc1ccc(Cl)c(C(F)(F)F)c1` [Example 37U], for which the pIC50 in assay [1] (setting [6]) was 5.68. Further, the pKi in assay [1] is 5.97. Also, in assay [3], the “antagonism at CB1 receptors” value was “antagonism” and the “antagonism of 3 μM WIN 55212-2 at CB1 receptors” value is recorded as “antagonism”.
The molecule `O=C(NC1(c2ccc(Cl)cc2)CCCC1)C(CCC(=O)N1CCN(C2CCCCC2)CC1)N1C(=O)C(N2C(=O)OCC2c2ccccc2)C1C=Cc1ccccc1` (centres unmarked) [Example 42J] gave an IC50 in assay [2] of around 10 µM.
For the molecule `CC(C)(C)OC(=O)CCC(C(=O)N1CCN(CCc2ccccc2)CC1)N1C(=O)C(N2C(=O)OCC2c2ccccc2)C1C=Cc1ccccc1` [Example 19E, 2(S)-(tert-Butoxycarbonylethyl)-2-[3(S)-(4(S)-phenyloxazolidin-2-on-3-yl)-4(R)-(2-styryl)azetidin-2-on-1-yl]acetic acid N-[4-(2-phenylethyl)]piperazinamide], in assay [2], the 50% inhibitory concentration (IC50) is below 10 µM.
For the molecule `O=C(NC1(c2cccc(F)c2)CCCC1)C(CCC(=O)N1CCN(C2CCCCC2)CC1)N1C(=O)C(N2C(=O)OCC2c2ccccc2)C1C=Cc1ccccc1` (centres unmarked) [Example 42H], the concentration for half-maximal inhibition (IC50) in assay [2] is around 10 µM.
On to `COc1ccc(C2(NC(=O)C(CCC(=O)N3CCN(C4CCCCC4)CC3)N3C(=O)C(N4C(=O)OCC4c4ccccc4)C3C=Cc3ccccc3)CC2)cc1` (centres unmarked) [Example 42M], for which the IC50 in assay [2] was around 10 µM.
Turning to `O=C(CC(C(=O)N1CCN(CCc2ccccc2)CC1)N1C(=O)C(N2C(=O)OCC2c2ccccc2)C1C=Cc1ccccc1)NCc1cccc(C(F)(F)F)c1` (centres unmarked) [Example 28A], the IC50 in assay [2] is below 10 µM.
In the case of `CC(C)(C)C(=O)C(C(=O)OCc1ccccc1)N1C(=O)C(c2cccs2)C1C=Cc1ccccc1` (mixture of isomers) [Example 70C, Benzyl 2(RS)-tert-Butylcarbonyl-2-[3(S*)-2-thienyl)-4(R*)-(2-styryl)azetidin-2-on-1-yl]acetate], the pIC50 in assay [1] (setting [6]) is 5.87 and 5.85. Also, the pKi in assay [1] was 6.17. In assay [3], the “antagonism of WIN 55212-2 at CB1 receptors” value is given as “antagonism”, the “antagonism at CB1 receptors” value is on record as “antagonism” and the “antagonism of 3 μM WIN 55212-2 at CB1 receptors” value is on record as “antagonism”.
In general, Ki refers to a measure of affinity in units of concentration, obtained from inhibition or displacement. A lower Ki goes with a stronger hold on the target. For `O=C(C(CCCc1ccccc1)N1C(=O)C(N2C(=O)OCC2c2ccccc2)C1C=Cc1ccccc1)N1CCN(C2CCCCC2)CC1` (centres unmarked) [Example 62E], in assay [2], the IC50 is 0.539 µM and the Ki amounted to 0.360 µM.
On to `Cc1c(C(=O)NN2CCCCC2)nn(-c2ccc(Cl)cc2Cl)c1-c1ccc(I)cc1` [AM251, N-(piperidin-1-yl)-1-(2,4-dichlorophenyl)-5-(4-iodophenyl)-4-methyl-1H-pyrazole-3-carboxamide, reference compound], for which the “antagonism of WIN 55212-2 at CB1 receptors” value in assay [3] is given as “antagonism”.
For the molecule `CCN1CCN(C(=O)CCC(C(=O)NCc2cccc(C(F)(F)F)c2)N2C(=O)C(N3C(=O)OCC3c3ccccc3)C2C(Br)=Cc2ccccc2)CC1` (centres unmarked) [Example 45U], the IC50 in assay [2] is below 10 µM.
On to `O=C(NCc1ccc(Cl)c(C(F)(F)F)c1)[C@H](CCC(=O)N1CCN(C2CCCCC2)CC1)N1C(=O)[C@@H](N2C(=O)OC[C@@H]2c2ccccc2)[C@H]1/C=C/c1ccccc1` [Example 38J], for which the IC50 in assay [4] (quoted for the single-dose negative control of the CB2 functional assay, assay of the IC50 not stated) is above 10 µM.
As for `O=C(NCc1cccc(C(F)(F)F)c1)C(CC(=O)N1CCC(N2CCCCC2)CC1)N1C(=O)C(N2C(=O)OCC2c2ccccc2)C1C=Cc1ccccc1` (centres unmarked) [Example 31A], in assay [2], the IC50 is 0.379 µM and the Ki was 0.253 µM.
Turning to `O=C(NCc1cccc(C(F)(F)F)c1F)C(CC(=O)N1CCC(N2CCCCC2)CC1)N1C(=O)C(N2C(=O)OCC2c2ccccc2)C1C=Cc1ccccc1` [Example 33G, 2(R)-[[4-(Piperidinyl)piperidinyl]carbonylmethyl]-2-[3 (S)-(4(S)-phenyloxazolidin-2-on-3-yl)-4(R)-(2-styryl)azetidin-2-on-1-yl]acetic acid N-(2-fluoro-3-trifluoromethylbenzyl)carboxamide], in assay [4] (setting [7]), the IC50 turned out to be 0.273 µM and the Ki stood at 182 nM.
Take `O=C(CC[C@@H](C(=O)N1CCN(c2ccccc2)CC1)N1C(=O)[C@@H](N2C(=O)OC[C@@H]2c2ccccc2)[C@H]1/C=C/c1ccccc1)NCc1cc(F)cc(C(F)(F)F)c1` [Example 73D]: the pIC50 in assay [1] (setting [6]) is around 5.00.
With `O=C(CN1C(=O)C(c2ccccc2)C1C=Cc1ccccc1)OCc1ccccc1` (stereo not drawn) [Example 70A, Benzyl 2-[3(S*)-2-Phenyl)-4(R*)-(2-styryl)azetidin-2-on-1-yl]acetate], the pIC50 in assay [1] (setting [5]) is above 5.00.
Same read-out and setting: then `O=C(CC[C@@H](C(=O)N1CCN(C2CCCCC2)CC1)N1C(=O)[C@@H](N2C(=O)OC[C@@H]2c2ccccc2)[C@H]1/C=C/c1ccccc1)NCc1cc(C(F)(F)F)ccc1F` [Example 37Q], with above 5.00; and `COc1cccc(C(C)NC(=O)C(CCC(=O)N2CCN(C3CCCCC3)CC2)N2C(=O)C(N3C(=O)OCC3c3ccccc3)C2C=Cc2ccccc2)c1` (centres unmarked) [Example 38AF], with above 5.00.
The molecule `O=C(CC[C@@H](C(=O)N1CCN(C2CCCCC2)CC1)N1C(=O)[C@@H](N2C(=O)OC[C@@H]2c2ccccc2)[C@H]1/C=C/c1ccccc1)NCc1ccc(F)c(C(F)(F)F)c1` [Example 37R] showed a pIC50 in assay [1] (setting [5]) above 5.00.
